Measurements from patent US20060142319A1, “Pyridyl-substituted spiro-hydantoin crystalline forms and process” (priority 2004, published 2006).

Experiments:
[1] = Microsomal liver assay (rate of oxidative metabolism); type: in vitro ADME; details: human liver microsomes; 3 μM test compound, 1 mg/mL microsomal proteins, NADPH, 37° C.
Protocol: Mouse and rat liver microsomes were purchased from XenoTech LLC (Kansas City, Kans.), and human liver microsomes were obtained from BD Gentest (Woburn, Mass.).
The oxidative metabolism in liver microsomes of various species was studied under the following condition: 3 μM test compound (organic solvent content <0.1%), 1 mg/mL microsomal proteins, 1 mM β-nicotinamide adenine dinucleotide phosphase (β-NADPH), 100 mM phosphate buffer (pH 7.4), and 6.7 mM magnesium chloride. The reaction (n=3) was initiated by the addition of NADPH followed by incubation at 37° C. for 20 min. Aliquots of samples (0.1 mL) were taken at 0, 5, and 20 min, and the reaction was quenched by the addition of three volumes of acetonitrile. Samples were stored at −20° C. until analysis.
The rate of oxidation in liver microsomes was determined from the following equation: rate (nmol/min/mg protein)=k*C0/Cprotein, where k (1/min) is the turnover rate constant estimated from non-linear regression of the percent compound remaining (y)-time (t) curve using the equation y=y0*exp(−k*t); C0 is initial drug concentration (μM), and Cprotein is microsomal protein concentration (mg/mL).
Rates of metabolism are “binned” (classified) as follows: […]

CYP 2C19 = CYP 2C19 (Homo sapiens, UniProt P33261); assay: CYP assay; type: in vitro ADME; details: CYP assay per Drug Metabolism and Disposition 28, 1440-1448 (2000)
Sequence of CYP 2C19 (P33261 whole entry): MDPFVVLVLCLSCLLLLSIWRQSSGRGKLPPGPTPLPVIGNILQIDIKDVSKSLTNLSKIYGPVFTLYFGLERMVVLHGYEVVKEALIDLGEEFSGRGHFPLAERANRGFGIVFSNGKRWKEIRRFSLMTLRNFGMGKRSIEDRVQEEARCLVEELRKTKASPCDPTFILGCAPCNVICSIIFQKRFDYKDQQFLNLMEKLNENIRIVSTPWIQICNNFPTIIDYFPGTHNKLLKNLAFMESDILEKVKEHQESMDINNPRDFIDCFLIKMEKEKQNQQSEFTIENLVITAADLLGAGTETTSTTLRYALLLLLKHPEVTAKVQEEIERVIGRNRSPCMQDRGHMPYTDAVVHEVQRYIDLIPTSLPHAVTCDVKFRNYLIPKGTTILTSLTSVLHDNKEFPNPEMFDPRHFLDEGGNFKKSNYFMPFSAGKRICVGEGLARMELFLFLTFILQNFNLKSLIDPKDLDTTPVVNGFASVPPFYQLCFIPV
Protocol: The CYP assay was conducted according to the procedure in Drug Metabolism and Disposition, 28, 1440-1448 (2000).

Compound | rate of metabolism [1] | IC50 (CYP 2C19)
CN1C(=O)N(c2cc(Cl)cc(Cl)c2)C(=O)[C@]12CN(c1ccccn1)C[C@H]2c1ccc(C#N)cc1 (relative stereo) [4-[(5S*,9R*)-3-(3,5-dichlorophenyl)-1-methyl-2,4-dioxo-7-pyridin-2-yl-1,3,7-triazaspiro[4.4]non-9-yl]-benzonitrile] | 0.2 nmol/min/mg | 0.11 µM
CN1C(=O)N(c2cc(Cl)cc(Cl)c2)C(=O)[C@]12CN(c1ccc(C(=O)O)cn1)C[C@H]2c1ccc(C#N)cc1 [IId, 6-[(5S,9R)-9-(4-cyanophenyl)-3-(3,5-dichlorophenyl)-1-methyl-2,4-dioxo-1,3,7-triazaspiro[4.4]non-7-yl]nicotinic acid] | 0.01 ± 0.01 nmol/min/mg | 38.2 ± 2.22 µM
